Assay results: ChEMBL document CHEMBL1201862, “PubChem BioAssay data set” (2004)
Several values for one entry are separate records, joined by “and”; a condition that tells them apart may be missing. Equal entries are not always repeated.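 Five compound concentrations were applied to cells in 96-well plates for 48 hours; endpoints were derived by simple linear interpolation of the resulting dose-response curve. The concentration for 50% growth inhibition is given as GI50.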 Activity calls are given as the source filed them. Rule as the data show it: active = GI50 up to about 1.1 µM and inactive = higher.

Tests used:
Assay in all cases: NCI-60 cell line screen, 48 h
HOP-62 = test system: HOP-62
SF-539 = test system: SF-539
DU-145 = test system: DU-145
SNB-75 = test system: SNB-75
NCI-H226 = test system: NCI-H226
NCI/ADR-RES = test system: NCI/ADR-RES
SF-295 = test system: SF-295
SNB-19 = test system: SNB-19
MDA-MB-435 = test system: MDA-MB-435
ACHN = test system: ACHN
RPMI-8226 = test system: RPMI-8226
Hs-578T = test system: Hs-578T
SK-MEL-5 = test system: SK-MEL-5
UACC-62 = test system: UACC-62
EKVX = test system: EKVX
IGROV-1 = test system: IGROV-1
HCT-15 = test system: HCT-15
RXF 393 = test system: RXF 393

Row | SMILES | GI50 (HOP-62) | GI50 (SF-539) | GI50 (DU-145) | GI50 (SNB-75) | GI50 (NCI-H226) | GI50 (NCI/ADR-RES) | GI50 (SF-295) | GI50 (SNB-19) | GI50 (MDA-MB-435) | GI50 (ACHN) | GI50 (RPMI-8226) | GI50 (Hs-578T) | GI50 (SK-MEL-5) | GI50 (UACC-62) | GI50 (EKVX) | GI50 (IGROV-1) | GI50 (HCT-15) [µM] | GI50 (RXF 393)
1 | O=c1c2cc([N+](=O)[O-])cnc2sn1-c1ccc(Br)cc1 | 36.1 µM (inactive) | 27.3 µM (inactive) | > 100 µM (inactive) | 73.5 µM (inactive) | 73.6 µM (inactive) | 33.9 µM (inactive) | 17.5 µM (inactive) | 38.8 µM (inactive) | > 100 µM (inactive) | > 100 µM (inactive) | 26.6 µM (inactive) | 23.7 µM (inactive) | > 100 µM (inactive) | 82.4 µM (inactive) | 42.5 µM (inactive) | 81.7 µM (inactive) | 57.4 | –
2 | O=C1NC(N2CCCCC2)=N/C1=C\c1ccc(Cl)cc1 | 46.7 µM (inactive) | 94 µM (inactive) | 44.1 µM (inactive) | – | 22.3 µM (inactive) | 22 µM (inactive) | 60.5 µM (inactive) | 37 µM (inactive) | 60.4 µM (inactive) | 36.4 µM (inactive) | 66.2 µM (inactive) | 28.5 µM (inactive) | 35.5 µM (inactive) | 26.5 µM (inactive) | 26.3 µM (inactive) | 25.9 µM (inactive) | 43.1 | > 100 µM (inactive)
3 | O=c1n(Cc2ccccc2)c(=O)n2c(=O)n(Cc3ccccc3)c(=O)n12 | – | 39.8 µM (inactive) | > 100 µM (inactive) | > 100 µM (inactive) | > 100 µM (inactive) | > 100 µM (inactive) | > 100 µM (inactive) | > 100 µM (inactive) | > 100 µM (inactive) | > 100 µM (inactive) | > 100 µM (inactive) | > 100 µM (inactive) | > 100 µM (inactive) | > 100 µM (inactive) | – | – | > 100 | –
4 | COc1cc2c3c(n(C)c(=O)c2cc1OC)-c1cc2c(cc1/C3=C\CCCI)OCO2 | 10 µM (inactive) | 3.94 µM (inactive) | 1.17 µM (inactive) | – | 1.34 µM (inactive) | 18.1 µM (inactive) | 0.904 µM (active) | 13.7 µM (inactive) | 19.3 µM (inactive) | 0.531 µM (active) | 3.92 µM (inactive) | 4.11 µM (inactive) | 10.4 µM (inactive) | 4.49 µM (inactive) | 30.1 µM (inactive) | 1.58 µM (inactive) | 2.56 | 10.6 µM (inactive)
5 | CNC(C#N)c1ccc(OC)cc1 (stereo not drawn) | – | > 100 µM (inactive) | > 100 µM (inactive) | – | > 100 µM (inactive) | > 100 µM (inactive) | > 100 µM (inactive) | > 100 µM (inactive) | 33.6 µM (inactive) | > 100 µM (inactive) | – | > 100 µM (inactive) | 25.8 µM (inactive) | > 100 µM (inactive) | > 100 µM (inactive) | > 100 µM (inactive) | > 100 | > 100 µM (inactive)
6 | COc1ccc(COC(=O)NNC(=O)C2CSC(c3ccccc3)N2C(C)=O)cc1 (stereo not drawn) | > 100 µM (inactive) | > 100 µM (inactive) | > 100 µM (inactive) | > 100 µM (inactive) | > 100 µM (inactive) | > 100 µM (inactive) | > 100 µM (inactive) | > 100 µM (inactive) | > 100 µM (inactive) | > 100 µM (inactive) | > 100 µM (inactive) | > 100 µM (inactive) | > 100 µM (inactive) | > 100 µM (inactive) | > 100 µM (inactive) | > 100 µM (inactive) | > 100 | –
7 | O=C(CSc1nnc(-c2ccccn2)s1)N/N=C/c1ccc([N+](=O)[O-])cc1 | 35.6 µM (inactive) | 59.2 µM (inactive) | 11.4 µM (inactive) | 2.86 µM (inactive) | > 100 µM (inactive) | > 100 µM (inactive) | 29.4 µM (inactive) | 21.9 µM (inactive) | > 100 µM (inactive) | 53.8 µM (inactive) | – | 32.1 µM (inactive) | > 100 µM (inactive) | 76.4 µM (inactive) | – | 20.9 µM (inactive) | 45.6 | 12.1 µM (inactive)
8 | Cc1ccc2nc(C(=O)O)c(=O)[nH]c2c1 | > 100 µM (inactive) | > 100 µM (inactive) | > 100 µM (inactive) | – | > 100 µM (inactive) | > 100 µM (inactive) | > 100 µM (inactive) | > 100 µM (inactive) | > 100 µM (inactive) | > 100 µM (inactive) | > 100 µM (inactive) | > 100 µM (inactive) | > 100 µM (inactive) | > 100 µM (inactive) | > 100 µM (inactive) | > 100 µM (inactive) | > 100 | > 100 µM (inactive)
9 | O=C1CC(=O)NC(NN2C(=O)/C(=C/c3ccc(Cl)cc3)N=C2c2ccccc2)=N1 | 15.5 µM (inactive) | 16.8 µM (inactive) | 30.1 µM (inactive) | 29.1 µM (inactive) | 16.9 µM (inactive) | 14.9 µM (inactive) | 14.5 µM (inactive) | – | 15.2 µM (inactive) | 17.4 µM (inactive) | 11.3 µM (inactive) | 14.3 µM (inactive) | 17.7 µM (inactive) | 12.5 µM (inactive) | – | 13.2 µM (inactive) | 15 | 14.1 µM (inactive)
10 | CC1(C=O)CCC23COC4(CCC5C6(C)CCC(OC7OCC(OC8OC(CO)C(O)C(OC9OC(CO)C(O)C(O)C9O)C8OC8OCC(O)C(O)C8O)C(O)C7OC7OC(CO)C(O)C(O)C7O)C(C)(C)C6CCC5(C)C4(C)CC2O)C3C1 (stereo not drawn) | 2.13 µM (inactive) | 1.3 µM (inactive) | 1.46 µM (inactive) | 1.26 µM (inactive) | 1.8 µM (inactive) | 0.264 µM (active) | 0.908 µM (active) | 0.198 µM (active) | 1.48 µM (inactive) | 1.3 µM (inactive) | 1.71 µM (inactive) | 1.5 µM (inactive) | 1.61 µM (inactive) | 1.71 µM (inactive) | 1.5 µM (inactive) | 1.42 µM (inactive) | 1.53 | –
11 | Cc1[nH]c2ncn3[nH]c(=S)nc3c2c1Cc1ccccc1 | > 100 µM (inactive) | > 100 µM (inactive) | > 100 µM (inactive) | 25.2 µM (inactive) | > 100 µM (inactive) | > 100 µM (inactive) | > 100 µM (inactive) | > 100 µM (inactive) | > 100 µM (inactive) | > 100 µM (inactive) | – | 62.7 µM (inactive) | > 100 µM (inactive) | > 100 µM (inactive) | > 100 µM (inactive) | 48.1 µM (inactive) | > 100 | 26.5 µM (inactive)
12 | O=C1CC(C(OCc2ccccc2)C(OCc2ccccc2)C(COCc2ccccc2)OCc2ccccc2)CC(=O)N1 (stereo not drawn) | – | > 100 µM (inactive) | > 75 µM (inactive) | – | > 100 µM (inactive) | > 75 µM (inactive) | > 75 µM (inactive) | > 75 µM (inactive) | > 75 µM (inactive) | > 75 µM (inactive) | > 75 µM (inactive) | > 75 µM (inactive) and 88.7 µM (inactive) | > 75 µM (inactive) | – | > 100 µM (inactive) | > 100 µM (inactive) | > 75 | 42.9 µM (inactive) and 29.6 µM (inactive)
13 | O=C(Nc1ccn(C2CC(O)C(CO)O2)c(=O)n1)c1ccccc1 (stereo not drawn) | > 100 µM (inactive) | > 100 µM (inactive) | > 100 µM (inactive) | > 100 µM (inactive) | > 100 µM (inactive) | > 100 µM (inactive) | > 100 µM (inactive) | > 100 µM (inactive) | > 100 µM (inactive) | > 100 µM (inactive) | > 100 µM (inactive) | > 100 µM (inactive) | > 100 µM (inactive) | > 100 µM (inactive) | > 100 µM (inactive) | > 100 µM (inactive) | > 100 | –
14 | c1ccc2c(Nc3ncco3)cccc2c1 | > 10 µM (inactive) | > 10 µM (inactive) | > 10 µM (inactive) | > 10 µM (inactive) | > 10 µM (inactive) | > 10 µM (inactive) | > 10 µM (inactive) | > 10 µM (inactive) | > 10 µM (inactive) | > 10 µM (inactive) | – | > 10 µM (inactive) | > 10 µM (inactive) | > 10 µM (inactive) | > 10 µM (inactive) | > 10 µM (inactive) | > 10 | –
15 | C/C(=N\NC(=S)N1CCCCC1)c1nc2cccnc2[nH]1 | 9.62 µM (inactive) | 6.14 µM (inactive) | 14.7 µM (inactive) | 38.4 µM (inactive) | 8.53 µM (inactive) | 3.83 µM (inactive) | 8.51 µM (inactive) | 15.7 µM (inactive) | 15.1 µM (inactive) | 3.95 µM (inactive) | 4.33 µM (inactive) | 38.8 µM (inactive) | 4.03 µM (inactive) | 13.7 µM (inactive) | 5.3 µM (inactive) | 21 µM (inactive) | 5.81 | –
16 | O=S(=O)(O)c1c(/N=N/c2c(O)ccc3ccccc23)ccc2ccccc12 | > 100 µM (inactive) | – | > 100 µM (inactive) | > 100 µM (inactive) | 19.4 µM (inactive) | > 100 µM (inactive) | > 100 µM (inactive) | > 100 µM (inactive) | > 100 µM (inactive) | – | > 100 µM (inactive) | > 100 µM (inactive) | > 100 µM (inactive) | > 100 µM (inactive) | > 100 µM (inactive) | 79.8 µM (inactive) | > 100 | > 100 µM (inactive)
17 | CSc1ncc2c(n1)-c1ccccc1OC2N1CCOCC1 (stereo not drawn) | – | > 100 µM (inactive) | > 100 µM (inactive) | 44.5 µM (inactive) | 85.7 µM (inactive) | 57.1 µM (inactive) | 49.7 µM (inactive) | 68.2 µM (inactive) | > 100 µM (inactive) | 80.9 µM (inactive) | 49.9 µM (inactive) | 61.2 µM (inactive) | 40.4 µM (inactive) | 28.1 µM (inactive) | 76 µM (inactive) | 39.4 µM (inactive) | 53.7 | 53.8 µM (inactive)
